Measurements published in patent publication US20230340127A1, “METHODS AND COMPOSITIONS FOR CANCER TREATMENT BY INHIBITION OF FBXO44” (Sanford Burnham Prebys Medical Discovery Institute, priority 2022, published 2023).

Legend:
[1] = tested on: HMECs and primary astrocytes; assay: Viability of normal cells after F5446 treatment; type: cell-based, human; settings: F5446 for 48 hrs (FIG. 9G)
Method: To assess whether this epigenetic regulatory pathway could potentially be targeted for cancer treatment, SUV39H1 and its chemical inhibitor F5446 were used to perform experiments. IF, qRT-PCR, and growth curve experiments were performed as described in previous examples. Human mammary epithelial cells (HMECs) and primary astrocytes were also used in the experiments. HMECs (Lonza, #CC-2551) were cultured in MEGM BulletKit Medium (Lonza, #CC-3150). Primary astrocytes were cultured Astrocyte Medium (ScienCell, #1801) and cells were incubated at 37° C. in 5% CO2. All cells were incubated at 37° C. in 5% CO2. The cell cultures were authenticated by short tandem repeat (STR) analysis.
To establish the potential of a therapeutic index for FBXO44/SUV39H1, the role of FBXO44/SUV39H1 in RE silencing in normal cells was investigated using human mammary epithelial cells (HMECs) or primary astrocytes. HMECs and primary astrocytes were cultured and treated with F5446 as described in example 17. Growth curve, immunoblotting, IF, ChIP experiments were performed as described in previous examples.

[2] = tested on: chromatin associated H3K9me3 modifications in MDA-MB-231 cells; assay: Immunofluorescence of chromatin associated H3K9me3 after F5446 treatment; type: cell-based, human; settings: vehicle or F5446 for 48 hrs, IF (FIG. 10E)
Method: Immunofluorescence (IF): IF was performed to detect chromatin associated H3K9me3 in siRNA of FBXO44 or control. Briefly, cells were grown on Laminin-coated coverslips (neuVitro no. GG-12-laminin), washed twice with cold PBS, and then fixed with 4% paraformaldehyde for 20 min at 25° C. followed by permeabilization with 0.5% Triton X-100 in PBS for 5 min. Cells were fixed with chilled methanol for 5 min at −20° C. After 3×10 min washes in PBS, cells were incubated in blocking buffer (10 mM Tris-Cl [pH 7.5], 120 mM KCl, 20 mM NaCl, 0.5 mM EDTA, 0.1% Triton X-100, 10% milk, 2% BSA) overnight at 4° C. The relevant primary antibodies diluted in blocking buffer were then added. Specifically, 1:500 dilution for anti-H3K9me3 (Abcam no. ab8898). Cells were washed 3×10 min with KCMT buffer (10 mM Tris-Cl [pH 7.5], 120 mM KCl, 20 mM NaCl, 0.5 mM EDTA, 0.1% Triton X-100) and incubated with Alexa Fluor 488-labeled anti-rabbit (Thermo Fisher Scientific no. A-21441) or Alexa Fluor 594-labeled anti-mouse (Cell Signaling Technologies no. 8890) antibodies at 1:500 dilution for 1 hr at 25° C. After 3×10 min washes with KCMT buffer, cells were stained with DAPI (Thermo Fisher Scientific no. D1306), coverslips mounted with anti-fade mounting medium (Vector Laboratories no. H-1000), and slides examined by fluorescence microscopy (Nikon Inverted TE300) or confocal microscopy (Zeiss LSM 710 NLO). […]

Question: For `COC(=O)c1cc2c(n1S(=O)(=O)c1ccc(Cl)cc1)C(=O)C(=O)c1[nH]cc(C(=O)OCc3ccccc3)c1-2` [F5446], which “HMEC and astrocyte viability” value [1] is on record?
Answer: minimally affected

Question: What about the “chromatin-associated H3K9me3” value [2] of the same molecule?
Answer: reduced
